Data: patent US20230139328A1, “DOSAGE FORMS FOR IMPROVING ORGAN TRANSPLANTATION, GRAFT VERSUS HOST DISEASE AND STEM CELLS TRANSPLANTS” (Aphios Corporation, priority 2020, published 2023)
Entries after “also recorded” stand apart in the source; their conditions may differ.

How the values were obtained:
Assay type in all cases: cell-based, human
[1] = tested on: neutrophil migration across confluent HMEC monolayers; experiment: TNF-α induced neutrophil migration across HMEC monolayers; settings: HMECs; 24 h TNF-α 10 or 20 ng/ml; 100 nM, 1 h pretreatment
Experimental: FIG. 4 graphically depicts the effect of PMA on TNF-α induced neutrophil migration.
Turning now to FIG. 5, FIG. 5 graphically depicts the effect of Bryostatin-1 on TNF-α induced neutrophil migration.
Migration Assays: At confluency HMECs were treated for 1 h at 37° C. with Bryostatin-1 (10 nM, 100 nM) in MCDB-131 media or MCDB-131 media alone. Inserts were washed three times with Hank's Balanced Salt Solution (HBSS) (to eliminate drug effects on the neutrophils) and placed in a new plate containing either 500 μL 100 nM LTB4, or HBSS alone for control. 500 μL HBSS was then added to the top well and spiked with 500,000 neutrophils. For TNF-α experiments, HMECs were left in 20 ng/ml TNF-α in MCDB-131 for 24 h TNF-α was removed and HMECs washed three times. […] Migration was stopped by removing the inserts and migration was measured using the myeloperoxidase (MPO) assay.
Myeloperoxidase Assay: Neutrophil migration was measured using myeloperoxidase (MPO) analysis. […] The supernatant was removed, and MPO activity was measured using TMB/peroxide as chromogen. The reaction was stopped with sulfuric acid and absorbance was read at 450 nm using a microplate reader. […] Data was expressed as “% neutrophil migration”, which allowed cumulative statistical analysis to be done and account for unpreventable batch-to-batch variations.

[2] = tested on: neutrophil migration across HUVECs; experiment: Time course of LTB4 induced neutrophil migration across HUVECs; settings: single 1 h 100 nM pretreatment, washed, tested at 0, 24, 48 h
Experimental: Time Course Assays: At confluency, HUVECs were treated for 1 h at 37° C. with Bryostatin-1 (10 nM, 100 nM) in EGM or EGM alone. Inserts were washed three times with HBSS (to reduce drug effects on the neutrophils) and migration assays were ran at t=0, 24, or 48 h. After time elapsed, HUVECs were placed in a new plate containing either 500 μL 100 nM LTB4 or HBSS alone for control. 500 μL HBSS was then added to the top well and spiked with 500,000 neutrophils. Neutrophils were allowed to migrate for 3 h at 37° C. Migration was stopped by removing the inserts and migration was measured using the MPO assay.
Myeloperoxidase Assay: Neutrophil migration was measured using myeloperoxidase (MPO) analysis. Cell culture inserts were first removed, and plates were spun at 1,500 RPM for 5 min. The supernatant was removed, and MPO activity was measured using TMB/peroxide as chromogen. The reaction was stopped with sulfuric acid and absorbance was read at 450 nm using a microplate reader. All experiments were performed n=6. Data was expressed as “% neutrophil migration”, which allowed cumulative statistical analysis to be done and account for unpreventable batch-to-batch variations.

[3] = tested on: neutrophil migration across confluent HMECs; experiment: LTB4 induced neutrophil migration across HMEC monolayers (transwell, MPO assay); settings: for effect on LTB4 induced neutrophil migration at 1 nM / effect on LTB4 induced neutrophil TEM at higher doses (100 nM): 1 h pretreatment, 100 nM LTB4; for effect on LTB4 induced neutrophil migration (dose response): 1 h pretreatment at 1-100 nM, 100 nM LTB4, 3 h migration
Experimental: FIG. 6 graphically depicts protection against LTB4 induced PMN TEM with PMA up to 48 h after pretreatment. HMECs were pretreated for 1 h with PMA and washed with HBSS three times to remove PMA prior to replacement of culture medium. Neutrophil migration studies were then performed at 0, 24, or 48 hours. Migration was stimulated by adding 500,000 neutrophils to the top well and 100 nM LTB4 to the lower well at 0, 24, and 48 hours after PMA pretreatment. […] PMA (100 nM, (10^−7M) reduced LTB4 induced migration up to 48 hours after 1 h of endothelial-specific pretreatment (***p<0.001).
Referring now to FIG. 7, FIG. 7 graphically depicts protection from LTB4 induced PMN TEM with Bryostatin-1 up to 48 hours after pretreatment. HMECs were pretreated for 1 h with Bryostatin-1 and washed with HBSS three times to remove Bryostatin-1 prior to replacement of culture medium. Neutrophil migration studies were then performed at 0, 24, or 48 hours. Migration was stimulated by adding 500,000 neutrophils to the top well and 100 nM LTB4 to the lower well at 0, 24, and 48 hours after Bryostatin-1 pretreatment. […] Bryostatin-1 (100 nM) reduced LTB4 induced migration up to 48 hours after 1-hour endothelial pretreatment (***p<0.001).
Cell Culture: HMECs were a generous gift from Dr. Francisco Candal (Centers for Disease Control), and are derived from the subcutaneous microvasculature. HMECs were maintained in MCDB-131 supplemented with 10% FCS, 1% antibiotic antimycotic, 10 ng/ml EGF, and […] hydrocortisone. The cell cultures were incubated at 37° C. in a humidified atmosphere with 7.5% CO2 and expanded by brief trypsinization (0.25% trypsin in phosphate-buffered saline containing 0.02% EDTA). HMECs were seeded onto 8 μm inserts for migration assays and 48-well plates for endothelial viability studies. Human umbilical vein endothelial cells (HUVECs) were harvested from umbilical cords by 0.25% collagenase treatment for 20 min at 37° C. HUVECs were maintained in Endothelial Growth Medium (EGM) supplemented with Bovine Brain Extract. The cell cultures were incubated at 37° C. in a 100% humidified atmosphere with 5% C02 and expanded by brief trypsinization. Primary passage HUVEC were seeded onto fibronectin coated (25 μg/ml)8 μm inserts for migration assays and 48-well plates for endothelial viability studies. Culture medium was replaced every second day. Cells were identified as endothelial cells by their cobblestone appearance at confluency, positive labeling with acetylated low density lipoprotein labeled with 1,11-dioctadecyl-1 3,3,31,31,3-tetramethylindocarbocyanine perchlorate (Dil-Ac-LDL; Biomedical Technologies, Inc.) and mouse antihuman factor […] (Calbiochem, San Diego, Calif.).
Neutrophil Isolation: Neutrophils were isolated using a Ficoll gradient. Whole blood was taken from human donors, and 5 ml was layered on top of two layers of Histopaque. Tubes were spun at 2,100 rpm for 40 min. The neutrophil layer was added to cold PBS and re-spun at 2,100 rpm for 5 min. Supernatant was removed and neutrophils were suspended in a fixed amount of PBS to determine cell count. Cells were kept on ice until assays were performed.
[…] Inserts were washed three times with Hank's Balanced Salt Solution (HBSS) (to eliminate drug effects on the neutrophils) and placed in a new plate containing either 500 μL 100 nM LTB4, or HBSS alone for control. 500 μL HBSS was then added to the top well and spiked with 500,000 neutrophils. For TNF-α experiments, HMECs were left in 20 ng/ml TNF-α in MCDB-131 for 24 h TNF-α was removed and HMECs washed three times. […] The drug was removed, and cells were washed three times. 500 μL HBSS was added to both upper and lower chambers and spiked with 500,000 neutrophils. Neutrophils were allowed to migrate for 3 h at 37° C. Migration was stopped by removing the inserts and migration was measured using the myeloperoxidase (MPO) assay.
Myeloperoxidase Assay: Neutrophil migration was measured using myeloperoxidase (MPO) analysis. […]

Row | SMILES | effect on TNF-α induced neutrophil TEM (Type II migration) [1] | time after pretreatment for which reduction of LTB4 induced migration is maintained, HUVECs [2] | effect on LTB4 induced neutrophil migration at 1 nM [3] | effect on LTB4 induced neutrophil TEM at higher doses (100 nM) [3] | effect on LTB4 induced neutrophil migration (dose response) [3] | time after pretreatment for which reduction of LTB4 induced migration is maintained, HMECs ([3]; single 1 h 100 nM pretreatment, washed, tested at 0, 24, 48 h) [h]
1 | CCCCCCCCCCCCCC(=O)O[C@@H]1[C@@H](C)[C@@]2(O)[C@@H](C=C(CO)C[C@]3(O)C(=O)C(C)=C[C@@H]23)[C@@H]2C(C)(C)[C@]12OC(C)=O [PMA, phorbol myristate acetate] | attenuated Type II migration; also recorded: totally attenuated | up to 48 h | did not reduce PMN TEM; also recorded: had no effect | attenuated neutrophil TEM to levels below that of basal migration | dose-dependently reduced; also recorded: reduced LTB4 induced migration in a dose dependent manner | –
2 | CCC/C=C/C=C/C(=O)O[C@H]1/C(=C/C(=O)OC)C[C@H]2C[C@H]([C@@H](C)O)OC(=O)C[C@H](O)C[C@@H]3C[C@H](OC(C)=O)C(C)(C)[C@](O)(C[C@@H]4C/C(=C/C(=O)OC)C[C@H](/C=C/C(C)(C)[C@]1(O)O2)O4)O3 [Bryostatin-1] | attenuated Type II migration; also recorded: totally attenuated | 48 h | did not reduce PMN TEM | attenuated neutrophil TEM to levels below that of basal migration | dose-dependently reduced; also recorded: reduced LTB4 induced migration in a dose dependent manner | 48
